Results from patent publication US20060037085A1, “Animal model for fetal alcohol syndrome and methods of treatment” (priority 2004, published 2006).
“And” between values parts separate entries of the source, which are not always exact repeats. Equal values may be shown once. Read-outs that look alike come from different tables or passages of the source.

Columns and labels:
Xenopus laevis embryos [1] = details: for % body length of control / % width between eyes of control / N (normal) tadpoles / def (deformed) tadpoles: Xenopus laevis
Experimental: Embryo collection and experimental conditions for Xenopus model. […] In each experiment, embryos at the 2-4 cell stage were collected from the dejellied embryos. […] Each group was then incubated in a plastic petri dish containing 10 ml of 30% MMR, with or without ethanol for 12 hours. Embryos were allowed to develop for approximately 48 hours at room temperature (22° C.), until the control group reached tadpole stage (stage 45). The conditions used for producing eye defects (Peng et al, 2004), delayed gut development (Peng), microencephaly (Peng et al), and growth retardation (Peng) are shown in detail in the attached references.
Morphological measurements of microcephaly and growth retardation.
In a specific embodiment, embryos are exposed to at least about 0.4%, 0.5%, 0.6%, 0.7%, 0.8%, 0.9% or 1% alcohol.
Embryos were exposed to 0.6% ethanol at stage 9, 11, 13, 16, 18, 20, 23, 25 and 40 and were grown until the control “no ethanol” group reached tadpole stage. The morphology of the tadpoles was then examined (Table 2).
To determine the minimum duration required to produce fetal deformations, embryos at stage 13 were exposed to 0.6% of alcohol for 1, 2, 4, 6, 12, 24, 36 or 48 hours.

[2] = tested on: alcohol-induced ROS production; experiment: ROS measurement (hydrogen peroxide level in embryos); assay type: in vivo, Xenopus laevis; details: 0.6% alcohol, stage 13 to 22, harvested at stage 22
Experimental: (A) Embryos were pretreated with or without vitamin C two hours before alcohol treatment (0.6%, 12 h, from stage 13 to 22). The embryos were harvested at stage 22 and the hydrogen peroxide level measured by the colorimetric quantitation of hydrogen peroxide method (total hydroperoxides), according to the protocols provided by the manufacturer (BIOXYTECH H202-560 kit, OXIS International, Inc., USA); (B) The NF-κB mediated transcriptional activity was measured using NF-κB luciferase reporter plasmid (pLuc-NF-κB) containing IL-6 promoter region with four repeats of NF-κB binding sites.
ROS measurement. […] At the end of the experiment, embryos were harvested and total ROS content was determined by the calorimetric quantitation of hydrogen peroxide method (total hydroperoxides), following protocols provided by the manufacturer (BIOXYTECH H202-560 kit, OXIS International, Inc. USA).

NF-κB = NF-κB reporter assay (pLuc-NF-κB) in whole embryos; assay type: in vivo, Xenopus laevis; details: 0.6% ethanol, recorded at stage 22
Experimental: NF-κB reporter assay. NF-κB luciferase reporter plasmid (pLuc-NF-κB) containing IL-6 promoter region with four repeats of NF-κB binding sites was used to measure NF-κB-mediated transcriptional activity (Li, 1997). Embryos at the two-cell stage were injected with pLuc-NF-κB, treated as indicated in the text, harvested, and lysed at stage 22. Protein concentration was determined. The luciferase activities were measured and calculated as relative luciferase activity per mg of protein.
In this embodiment, NF-κB activity was measured in the whole embryo by the reporter construct pLuc-NF-κB, which was injected into embryos at 2-cell stage.

NCAM = details: animal caps until stage 22
Excerpt: (§1) RT-PCR Animal caps were dissected from embryos at stage 8.5 and cultured in 67% Leibovitz's L-15 medium, pH 7.5 in the presence or absence of varied concentration of alcohol until stage 22. Total RNA was extracted from cultured animal caps with Trizol reagent (Invitrogen). Primer sets and PCR conditions for NCAM and Pax6 have been described in our previous reports (Peng, Neurobiol. Dis., 2004; Peng, J. Mol. Biol., 2004). PCR products were subject to electrophoresis on TBE gel and visualized by ethidium bromide staining.
(§2) Animal cap explant assay. […] Total RNA was extracted from animal caps or whole embryos using TRIZOL reagent (Invitrogen). The total RNA was reverse transcribed using the Superscript system (Invitrogen), and the first strand cDNA of the target gene amplified by PCR.
(§3) The Xenopus animal cap is composed of pluripotent cells that can be induced to form neural, mesodermal, or epidermal tissue, and is a useful tissue to assess the activity of various factors on neural development. Animal caps were treated with varied concentrations of alcohol as indicated.

Pax6 = details: animal caps until stage 22
Excerpt: as §1, §2, §3

[3] = tested on: Pax6, Otx2, Sox2, Sox3, NCAM, Vent1; experiment: RT-PCR of neural markers (animal caps or embryos); assay type: cell-based, Xenopus laevis; details: animal caps
Excerpt: as §1, §2, §3

Sox17, Pax6 and VegT = experiment: Animal cap explant assay, RT-PCR of gut developmental genes; assay type: cell-based, Xenopus laevis; details: alcohol
Excerpt: as §2

Xenopus laevis embryos [4] = tested on: Xenopus laevis embryos
Experimental: Morphological measurements of microcephaly and growth retardation. The tadpoles were then fixed in 2% paraformaldehyde in 30% MMR, and their morphologies examined by light microscopy and photographs were taken at a fixed magnification for body length and head width measurements. The following criteria were recorded: (1) the number of normal/deformed/dead embryos; (2) length of the body measured between the tip of the jaw and the tip of the tail, and (3) width between the eyes measured at the widest level of that of the tadpoles.
In each experiment, embryos at 2-cell stage were collected and microinjected with the expression plasmid for either catalase (pCMS-CAT), xPax6 (pCS2+xPax6) or xSox2 (pCS2+xSox2) into each of the two blastomeres. After reaching stage 13, the embryos were divided into groups, each consisting of 20 embryos, which were then incubated in 10 ml of 30% Modified Marc's Ringer (MMR) for 12 hours until stage 22 in the presence or absence of varied concentrations of alcohol as indicated. As alcohol is volatile, the experimental media were replaced with fresh media every 4 hours during the course of alcohol treatment to minimize fluctuations in the alcohol concentration. At stage 22, embryos were transferred to 10 ml of 30% MMR without alcohol and allowed to grow until the control group reached the tadpole stage (stage 40 or 45). The tadpoles were then fixed and examined. Each experiment was repeated at least once with reproducible results.
The injected embryos were allowed to grow to stage 40, and their head size and body length were then compared to that of the control embryos injected with mock plasmid pCS2+ and without alcohol treatment. […] In a separate experiment, 100 pg pCS2+xSox2 or pCS2+ plasmid was injected into animal pole at two-cell stage embryos (n=50) and treated these embryos in 0.6% alcohol under the same conditions as described for Pax6.
As H2O2 is the major ROS produced by fetal alcohol exposure (Ozer et al., 2000), whether eliminating alcohol-induced H2O2 production can prevent microcephaly was examined by the protective effect of catalase. Human catalase was overexpressed in Xenopus embryos by microinjecting the two-cell stage embryos with 100 pg of catalase expression plasmid pCMS-CAT, and then treating them with or without 0.6% alcohol from stage 13 to 22.

Xenopus laevis embryos [5] = tested on: Xenopus laevis embryos; remark: listed apart in the source
Experimental: Midneurala stage embryos were kept in either the control 10% MSS medium or the same medium supplemented with 0.5% alcohol. The embryos were allowed to grow until the control embryos (no alcohol) reached the tadpole stage (stages 45-46). All the embryos were then fixed and their body length and gut morphologies were recorded.
Embryos were injected with pCMS, pCMS-mtPRDX5, pCMS-cpPRDX5 or pCMS-Catalase expression plasmid, and then maintained in medium with or without 0.5% alcohol. When the tadpoles of control group reached stages 45-46, all the tadpoles were fixed and their gut developmental stages and body lengths were measured and used for the correlation studies. […] Embryos were injected with pCMS, pCMS-mtPRDX5, or pCMS-Catalase expression plasmid, and then treated with or without alcohol as indicated. The expression of the gut markers was determined by RT-PCR.
We also examined the correlation between the stage of gut development and body length in each individual tadpole.

[6] = pCMS-EGFP vector-injected embryos, 0.6% alcohol stage 13 to 22
[7] = 0.5% alcohol stage 13 to 22, uninjected
[8] = 0.5% alcohol, pCMS vector-injected embryos

## CCO [Ethanol, ethanol]
Xenopus laevis embryos [1]; 0.3% ethanol from stage 11 until control reached stage 45, 15 embryos per group
  dead: 2
Xenopus laevis embryos [1]; 0.4% ethanol from stage 11 until control reached stage 45, 15 embryos per group
  dead: 1
Xenopus laevis embryos [1]; 0.5% ethanol from stage 11 until control reached stage 45, 15 embryos per group
  dead: 2
Xenopus laevis embryos [1]; 0.6% alcohol, 12-hour exposure, stage 13-22
  mortality, head and body sizes vs control: increased mortality and marked reduction in head and body sizes
Xenopus laevis embryos [1]; 0.6% ethanol from stage 11 until control reached stage 45, 15 embryos per group
  dead: 1
Xenopus laevis embryos [1]; 0.6% ethanol, initial exposure at Stage 11, until control reached tadpole stage
  dead: 3
Xenopus laevis embryos [1]; 0.6% ethanol, initial exposure at Stage 13, until control reached tadpole stage
  dead: 2
Xenopus laevis embryos [1]; 0.6% ethanol, initial exposure at Stage 16, until control reached tadpole stage
  dead: 1
Xenopus laevis embryos [1]; 0.6% ethanol, initial exposure at Stage 18, until control reached tadpole stage
  dead: 1
Xenopus laevis embryos [1]; 0.6% ethanol, initial exposure at Stage 20, until control reached tadpole stage
  dead: 2
Xenopus laevis embryos [1]; 0.6% ethanol, initial exposure at Stage 23, until control reached tadpole stage
  dead: 1
Xenopus laevis embryos [1]; 1.0% ethanol from stage 11 until control reached stage 45, 15 embryos per group
  dead: 3
Xenopus laevis embryos [1]; 1.5% ethanol from stage 11 until control reached stage 45, 15 embryos per group
  dead: 4
Xenopus laevis embryos [1]; 2.0% ethanol from stage 11 until control reached stage 45, 15 embryos per group
  dead: 6
Xenopus laevis embryos [1]; in vivo, 0.3 %
  % body length of control: 95 ± 54%
  % width between eyes of control: 84 ± 15%
  N (normal) tadpoles: 11
  def (deformed) tadpoles: 3
Xenopus laevis embryos [1]; in vivo, 0.4 %
  % body length of control: 90 ± 41%
  % width between eyes of control: 81 ± 11 %
  N (normal) tadpoles: 10
  def (deformed) tadpoles: 4
Xenopus laevis embryos [1]; in vivo, 0.5 %
  % body length of control: 85 ± 57 %
  % width between eyes of control: 75 ± 09 %
  N (normal) tadpoles: 7
  def (deformed) tadpoles: 6
Xenopus laevis embryos [1]; in vivo, 0.6 %
  % body length of control: 74 ± 34 %
  % width between eyes of control: 70 ± 18 %
  N (normal) tadpoles: 5
  def (deformed) tadpoles: 9
Xenopus laevis embryos [1]; in vivo, 1 %
  % body length of control: 70 ± 39 %
  % width between eyes of control: 69 ± 21 %
  N (normal) tadpoles: 2
  def (deformed) tadpoles: 10
Xenopus laevis embryos [1]; in vivo, 1.5 %
  % body length of control: 67 ± 51 %
  % width between eyes of control: 67 ± 17 %
  N (normal) tadpoles: 1
  def (deformed) tadpoles: 10
Xenopus laevis embryos [1]; in vivo, 2 %
  % body length of control: 65 ± 58 %
  % width between eyes of control: 67 ± 23 %
  N (normal) tadpoles: 0
  def (deformed) tadpoles: 9
Xenopus laevis embryos [1]; in vivo
  effect on viability and morphology of the tadpoles: no significant effect in either the viability or the morphology of the tadpoles
  teratogenic effect: resistant to the teratogenic effect of alcohol
Xenopus laevis embryos [1]; stage 40 tadpoles exposed to 0.6% alcohol
  mortality rate: 80%
[2]; listed as alcohol
  hydrogen peroxide level in the embryos: significantly augmented
[2]; listed as ethanol
  hydrogen peroxide level in the embryos: significantly increased
NF-κB
  NF-κB activity in the embryo (luciferase reporter): increased
NCAM; 0.1% alcohol
  reduction of NCAM expression: 15%
NCAM; 0.2% alcohol
  reduction of NCAM expression: 25%
NCAM; 0.3% alcohol
  reduction of NCAM expression: 50%
NCAM; 0.4% alcohol
  reduction of NCAM expression: 70%
Pax6; 0.1% alcohol
  suppression of Pax6 expression: 25%
Pax6; 0.2% alcohol
  suppression of Pax6 expression: 50%
Pax6; 0.3% (65 mM) alcohol
  suppression of Pax6 expression: 90%
[3]; alcohol 0.1% to 0.6%
  Otx2, Sox2, and Sox3 expression: less sensitive to alcohol
[3]; alcohol
  expression of the general ventral marker Vent1: not seriously affected
Sox17, Pax6 and VegT
  expression of Sox17, Pax6 and VegT: suppressed the expression
Xenopus laevis embryos [4]; Xenopus laevis, in vivo, 12 h
  alive (Total/alive): 40/32
Xenopus laevis embryos [4]; [6]
  Body length (% of control): 84 % of control and 83.7 ± 10.1^a % of control
  Distance between eyes (% of control): 81 % of control and 81.3 ± 14^a % of control
Xenopus laevis embryos [4]; pCS2+ (mock plasmid) injected group, 0.6% alcohol
  frequency of noted microcephaly and growth retardation: 52%
Xenopus laevis embryos [5]; [7]
  Body length (% no alcohol control): 87 ± 2.7 % no alcohol control
  Number of embryos in gut developmental stage 43: 8
  Number of embryos in gut developmental stage 44: 7
  Number of embryos in gut developmental stage 45: 2
  Number of embryos in gut developmental stage 46: 0
Xenopus laevis embryos [5]; 0.5% alcohol stage 13 to 22, uninjected, scored when controls reached stages 45-46
  Number of embryos in gut developmental stage 42: 3
Xenopus laevis embryos [5]; [8]
  Body length (% no alcohol control): 85 ± 3.1 % no alcohol control
  Number of embryos in gut developmental stage 42: 3
  Number of embryos in gut developmental stage 43: 7
  Number of embryos in gut developmental stage 44: 9
  Number of embryos in gut developmental stage 45: 1
  Number of embryos in gut developmental stage 46: 0
Xenopus laevis embryos [5]; sustained exposure of alcohol from stage 13
  outcome of sustained alcohol exposure: caused the death of tadpoles at around stages 45-50
Xenopus laevis embryos [5]; transient 0.5% alcohol exposure between stages 13-22
  gut maturation (looping pattern of the tadpole gut): significant delay in gut maturation
Xenopus laevis embryos [5]; transient alcohol exposure, gut examined at stage 60
  gut morphology, alcohol-treated vs control groups: no difference
